Test results published in patent US8530646B2, “Oxazolidinone derivative having 7-membered hetero ring” (Research Foundation Itsuu Laboratory, priority 2007, dated 2013).

Legend:
Assay in all cases: MIC determination by CLSI standard method (broth dilution, Mueller Hinton Broth)
Type in all cases: cell-based
Details in all cases: cation-adjusted Mueller Hinton Broth, inoculum about 5×10^5 CFU/mL, read-out: Minimal inhibitory concentration (MIC)
[1] = tested on: MRSA (methicillin-resistant Staphylococcus aureus)
Experimental: (§1) The compounds of the invention were tested for antimicrobial activity.
(§2) Minimal inhibitory concentration (MIC: μg/ml) against different strains of bacteria was determined according to the standard method recommended by CLSI (clinical and laboratory standards institute). Samples were prepared by dissolving a test compound solution into DMSO (1280 μg/mL), followed by two fold dilution with DMSO. The sample was added to a bacteria suspension at the concentration of 5%, and MIC was determined. Mueller Hinton Broth was adjusted for cation concentration and used as a culture media. The inoculation concentration was about 5×10^5 CFU/mL.

[2] = tested on: PRSP (penicillin resistant Streptococcus pneumoniae)
Experimental: as §1, §2

[3] = tested on: VRE (vancomycin resistance enterococcus)
Experimental: as §1, §2

[4] = tested on: VISA (vancomycin-intermediate Staphylococcus aureus)
Experimental: as §1, §2

MIC [1] [µg/mL] | MIC [2] [µg/mL] | MIC [3] [µg/mL] | MIC [4] [µg/mL] | Compound
≤ 1 | ≤ 1 | ≤ 1 | ≤ 1 | COC(=S)NC[C@H]1CN(c2ccc(N3CCNN(C(=O)Cn4cc(Cl)cn4)CC3)c(F)c2)C(=O)O1 [Example A91]
≤ 1 | ≤ 1 | ≤ 1 | ≤ 1 | CC(=S)NC[C@H]1CN(c2cc(F)c(N3CCON(C(=O)c4ccccc4O)CC3)c(F)c2)C(=O)O1 [Example B38]
